Converted amounts (≈) assume the structure as drawn.
What was measured:
[1] = tested on: Aspergillus niger (A. niger) - ATCC 6275; assay: MIC test, broth two-fold serial dilution; type: cell-based; details: ATCC6275, complete inhibition of growth, read-out: MIC (ppm) for each compound
Protocol: (§1) Activity against certain bacteria and fungi was determined using a minimum inhibitory concentration (MIC) test, which establishes the minimum concentration of test compound required to achieve complete inhibition of growth of the test organism. An MIC value was obtained using a broth, two-fold serial dilution test performed as follows: […] A volume of the stock solution was dispensed into culture media to give an initial starting test concentration of 500 ppm compound. When the test was ready to be done, each vessel in the dilution series, except the first vessel, contained an equal volume of compound free broth. The first vessel contained twice the volume of broth with the starting concentration of test compound. One half of the broth from the first vessel was transferred to the second vessel. After being mixed, one half the resulting volume was removed from the second vessel and transferred to the third vessel. The entire cycle was repeated sufficiently to give a series of concentrations amounting to 500, 250, 125, 63, 31, 16, 8, and 4 ppm (or 25, 12.5, 6.2, 3.1, 1.6, 0.8, 0.4, 0.2), respectively. Each vessel was then inoculated with a cell suspension of the appropriate test organism. Bacteria were grown in broth and fungi on agar […] for a time and at a temperature appropriate to the species being tested. At the end of the growth period, the bacteria containing broth was vortexed to disperse the cells. In the case of fungi, the spores were harvested by pipetting water onto the slant and dislodging the spores with a sterile loop. The cell/spore suspension was standardized by controlling incubation time, temperature, and the volume of the diluent. The suspension was then used to inoculate the vessels containing the broth compound. The vessels were then incubated at the appropriate temperature. Alter the incubation, the vessels were examined for growth/no growth. The minimum inhibitory concentration (MIC) is defined as the lowest concentration of compound that results in complete inhibition of growth of the test organism. The organisms tested were bacteria Pseudomonas fluorescens (Ps.fl) - ATCC 948, Pseudomonas aeruginosa (Ps.ae) - ATCC 15442, Escherichia Coli (E.coli) - ATCC 11229, and Staphylococcus aureus (S.aur) - ATCC 6538; and fungi Aspergillus niger (A. niger) - ATCC 6275, Penicillium funiculosum (P. fun.) - ATCC 11797, Cladosporium resinae (A. res.) - ATCC 52833, Aureobasidium pullulans (A. pull.) - ATCC 9248, Cloeophyllum trabeuor (G. trab.) - ATCC 11539; and two yeasts Sacharomyces […].) - ATCC 560, and Rhorotorularubra (R. rubra) - ATCC 2503.

[2] = tested on: Aureobasidium pullulans (A. pull.) - ATCC 9248; assay: MIC test, broth two-fold serial dilution; type: cell-based; details: ATCC9248, complete inhibition of growth, read-out: MIC (ppm) for each compound
Protocol: as §1

[3] = tested on: Cladosporium resinae (A. res.) - ATCC 52833; assay: MIC test, broth two-fold serial dilution; type: cell-based; details: Amorphotheca resinae, ATCC52833; Cl.res.; complete inhibition of growth; read-out: MIC (ppm) for each compound
Protocol: as §1

[4] = tested on: Cloeophyllum trabeuor (G. trab.) - ATCC 11539; assay: MIC test, broth two-fold serial dilution; type: cell-based; details: complete inhibition of growth, read-out: MIC (ppm) for each compound
Protocol: as §1

[5] = tested on: Escherichia Coli (E.coli) - ATCC 11229; assay: MIC test, broth two-fold serial dilution; type: cell-based; details: ATCC11229, complete inhibition of growth, read-out: MIC (ppm) for each compound
Protocol: as §1

[6] = tested on: Penicillium funiculosum (P. fun.) - ATCC 11797; assay: MIC test, broth two-fold serial dilution; type: cell-based; details: Talaromyces funiculosus, ATCC11797, complete inhibition of growth, read-out: MIC (ppm) for each compound
Protocol: as §1

[7] = tested on: Pseudomonas aeruginosa (Ps.ae) - ATCC 15442; assay: MIC test, broth two-fold serial dilution; type: cell-based; details: ATCC15442, complete inhibition of growth, read-out: MIC (ppm) for each compound
Protocol: as §1

[8] = tested on: Pseudomonas fluorescens (Ps.fl) - ATCC 948; assay: MIC test, broth two-fold serial dilution; type: cell-based; details: ATCC948, complete inhibition of growth, read-out: MIC (ppm) for each compound
Protocol: as §1

[9] = tested on: Rhorotorularubra (R. rubra) - ATCC 2503; assay: MIC test, broth two-fold serial dilution; type: cell-based; details: complete inhibition of growth, read-out: MIC (ppm) for each compound
Protocol: as §1

[10] = tested on: Sacharomyces cereresae (S. cer.) - ATCC 560; assay: MIC test, broth two-fold serial dilution; type: cell-based; details: complete inhibition of growth, read-out: MIC (ppm) for each compound
Protocol: as §1

[11] = tested on: Staphylococcus aureus (S.aur) - ATCC 6538; assay: MIC test, broth two-fold serial dilution; type: cell-based; details: ATCC6538, complete inhibition of growth, read-out: MIC (ppm) for each compound
Protocol: as §1

[12] = tested on: Fusarium roseum; type: cell-based; details: in vitro, dose 25 ppm, relative to untreated check
[13] = tested on: Piricularia oryzae; type: cell-based; details: in vitro, dose 25 ppm, relative to untreated check
[14] = tested on: Xanthomonas campestris; type: cell-based; details: in vitro, dose 25 ppm, relative to untreated check
[15] = tested on: Botrytis cinerea; details: 25 ppm
[16] = tested on: Cochliobolus sativus; details: 25 ppm
[17] = tested on: Phytophthora capsici; details: 25 ppm
[18] = tested on: Pythium ultimum; details: 25 ppm
[19] = tested on: Rhizoctonia solani; details: 25 ppm
[20] = tested on: Septoria nodorum; details: 25 ppm
[21] = tested on: Pseudoperonospora cubensis; assay: In vivo plant disease control test, cucumber downy mildew (CDM)
[22] = tested on: Piricularia oryzae; type: in vivo; details: Nato rice plants, sprayed at 200 ppm before inoculation, seven to eight days after inoculation
[23] = tested on: Septoria nodorum; assay: In vivo plant disease control test, wheat glume blotch (WGB)
[24] = tested on: Phytophthora infestans; type: in vivo; details: Pixie tomato plants, sprayed at 200 ppm before inoculation, four days after inoculation
[25] = tested on: Puccinia recondita (f. sp. tritici Races PKB and PLD); assay: In vivo plant disease control test, wheat leaf rust (WLR); details: Fielder wheat, 200 ppm, scored after 10 days
[26] = tested on: Erysiphe graminis (f. sp. tritici); assay: In vivo plant disease control test, wheat powdery mildew (WPM)

| Structure (SMILES) | MIC [1] [µg/mL] | MIC [2] [µg/mL] | MIC [3] [µg/mL] | MIC [4] [µg/mL] | MIC [5] [µg/mL] | MIC [6] [µg/mL] | MIC [7] [µg/mL] | MIC [8] [µg/mL] | MIC [9] [µg/mL] | MIC [10] [µg/mL] | MIC [11] [µg/mL] | % DISEASE CONTROL FUS [12] [%] | % DISEASE CONTROL PIR [13] [%] | % DISEASE CONTROL XAN [14] [%] | % DISEASE CONTROL BOC [15] [%] | % DISEASE CONTROL HEL [16] [%] | % DISEASE CONTROL PHY [17] [%] | % DISEASE CONTROL PRU [18] [%] | % DISEASE CONTROL RMI [19] [%] | % DISEASE CONTROL SEP [20] [%] | other results |
| --- | --- | --- | --- | --- | --- | --- | --- | --- | --- | --- | --- | --- | --- | --- | --- | --- | --- | --- | --- | --- | --- |
| O=c1oc2cc(Cl)ccc2n1CC#CBr [Y=6-Cl, X=Br, 3-(3-bromopropargyl)-6-chloro-2-benzoxazolone] | 32 (≈ 112 µM) | 32 (≈ 112 µM) | > 25 | > 25 | > 250 | > 25 | > 250 | > 250 | > 25 | > 25 | > 250 | 0 | 0 | 0 | 50 | 50 | 0 | 50 | 0 | 0 | – |
| O=c1oc2cc(Cl)ccc2n1CC#CI [Y=6-Cl, X=I, 3-(3-iodopropargyl)-6-chloro-2-benzoxazolone] | < 0.13 | ≤ 1 | ≤ 1 | ≤ 1 | > 250 | ≤ 1 | > 250 | 16 (≈ 48 µM) | ≤ 1 | ≤ 5 | 16 (≈ 48 µM) | 100 | 100 | 0 | 100 | 100 | 100 | 95 | 100 | 100 | – |
| O=c1oc2ccccc2n1CC#CBr [Y=H, X=Br, 3-(3-bromopropargyl)-2-benzoxazolone] | > 25 | > 25 | > 25 | > 25 | > 250 | > 25 | > 250 | > 250 | > 25 | > 25 | > 250 | – | – | – | – | – | – | – | – | – | – |
| O=c1oc2ccccc2n1CC#CI [Y=H, X=I, 3-(3-iodopropargyl)-2-benzoxazolone] | < 0.13 | 0.25 (≈ 0.836 µM) | ≤ 5 | ≤ 0.2 | > 250 | ≤ 1 | > 250 | > 250 | ≤ 1 | ≤ 1 | > 250 | 100 | 100 | 0 | 100 | 100 | 100 | 100 | 95 | 100 | % DISEASE CONTROL CDM [21]: 50%; % DISEASE CONTROL RB [22]: 95%; % DISEASE CONTROL WGB [23]: 0%; % DISEASE CONTROL TLB [24]: 0%; % DISEASE CONTROL WLR [25]: 90%; % DISEASE CONTROL WPM [26]: 90% |
